The assay has as its target T1, KRAS G12C 1-169, his-tagged protein, GDP-loaded (Homo sapiens, UniProt P01116, G12C).
T1 construct: KRAS G12C 1-169, his-tagged protein, GDP-loaded
The assay is described as follows: Biochemical assay: covalent modification of KRAS G12C measured by mass spectrometry (RapidFire/TOF or Q-Exactive). Conditions: covalent binding to (modification of) KRAS G12C after a ten minute incubation period. It is filed as binding. As for the experimental part: Test compounds were prepared as 10 mM stock solutions in DMSO (Fisher cat #BP-231-100). KRAS G12C 1-169, his-tagged protein, GDP-loaded is diluted to 2 μM or 0.5 μM in buffer (20 mM Hepes, 150 mM NaCl, 1 mM MgCl2). Compounds were tested for activity as follows:
Compounds were diluted to 50× final test concentration in DMSO in 96-well storage plates. Compound stock solutions were vortexed before use and observed carefully for any sign of precipitation. Dilutions are as follow: • For 100 μM final compound concentration, compounds were diluted to 5000 μM (5 μL 10 mM compound stock+5 μL DMSO and mixed well by pipetting. • For 30 μM final compound concentration, compounds were diluted to 1500 μM (3 μL 10 mM compound stock+17 μL DMSO) and mixed well by pipetting. • For 10 μM final compound concentration, compounds were diluted to 500 μM (2 μL 10 mM compound stock+38 μL DMSO) and mixed well by pipetting. 49 μL of the stock protein solution was added to each well of a 96-well PCR plate (Fisher cat #1423027). 1 μL of the diluted 50× compounds were added to appropriate wells in the PCR plate using 12-channel pipettor. Reactions were mixed carefully and thoroughly by pipetting up/down with a 200 μL multi-channel pipettor. The plate was sealed well with aluminum plate seal, and stored in drawer at room temperature for 10 minutes, 30 minutes, 2 hours or 24 hours. 5 μL of 2% formic acid (Fisher cat #A117) in de-ionized H2O was then added to each well followed by mixing with a pipette. The plate was then resealed with aluminum seal and stored on dry ice until analyzed as described below.
The above described assays were analyzed by mass spectrometry according to one of the following two procedures:
The MS instrument was set to positive polarity, 2 GHz resolution, and low mass (1700) mode and allowed to equilibrate for 30 minutes. The instrument was then calibrated, switched to acquisition mode and the appropriate method loaded.
After another 30 minute equilibration time, a blank batch (i.e., buffer) was run to ensure equipment is operating properly. The samples were thawed at 37° C. for 10 minutes, briefly centrifuged, and transfer to the bench top. Wells A1 and H12 were spiked with 1 μL 500 μM internal standard peptide, and the plates centrifuged at 2000×g for 5 minutes. The method was then run and masses of each individual well recorded.
The masses (for which integration data is desired) for each well were pasted into the platemap and exported from the analysis. Masses for the internal standards were exported as well. The data at 50 ppm was extracted for the +19 charge state, and identity of well A1 was assigned using the internal standard spike and integrated. Peak data was exported as a TOF list and the above steps were repeated individually, for the +20, 21, 22, 23, 24, and 25 charge states.
The masses and peak intensities of KRAS G12C protein species were measured using a Dionex RSLCnano system (Thermo Scientific) connected to a Q Exactive Plus mass spectrometer (Thermo Scientific).
[…] of sample was each loaded onto a Aeris™ 3.6 μm WIDEPORE C4 200 Å, LC Column 50×2.1 mm column maintained at 40° C. at a flow rate of 600 μL/min with 20% Solvent A (0.1% formic acid in H2O) and […] (0.1% formic acid in acetonitrile). The liquid chromatography conditions were 20% solvent B for 1 minute, 20% to 60% solvent B for 1.5 minutes, 60% to 90% solvent for 0.5 minute, 90% solvent B for 0.2 minute, 90% to 20% solvent B for 0.2 minute, and then equilibrated for 1.6 minutes before the following sample injection. The flow rate was maintained at 600 μL/min throughout the sample analysis.
The mass spectrometer was operated in profile mode at a resolution of 17500, 5 microscans, using 50 msec max injection time and an AGC target of 1×10^6, and a full mass range from 800-1850 m/z was recorded. The HCD trapping gas was optimized for maximum sensitivity for intact proteins. […]

In the case of “1-((2R,5S)-4-(6- chloro-7-(1,6- dimethyl-1H- benzo[d][1,2,3]triazol- 7-yl)-2-(3- (dimethylamino)azetidin- 1-yl)-8- flurooquinazolin-4- yl)-2,5- dimethylpiperazin-1- yl)prop-2-en-1-one [Compound 137]”, the Binding % entry is “+ (+ indicates binding activity greater than 0% and up to 50%)”.

In the case of `C=CC(=O)N1C[C@H](C)N(c2nc(N3CC(N(C)C)C3)nc3c(F)c(-c4c(C)ccc5[nH]nc(N)c45)c(Cl)cc23)C[C@H]1C` (atropisomer, axis not shown) [Compound 35, 1-((2R,5S)-4-((R)-7-(3-amino-5-methyl-1H-indazol-4-yl)-6-chloro-2-(3-(dimethylamino)azetidin-1-yl)-8-fluoroquinazolin-4-yl)-2,5-dimethylpiperazin-1-yl)prop-2-en-1-one], the Binding % entry is listed as “+++ (+++ indicates binding activity greater than 80%)”.

Regarding `C=CC(=O)N1CCN(c2nc(N3CC(N(C)C)C3)nc3c(F)c(-c4c(C)ccc5[nH]nc(N)c45)c(Cl)cc23)CC1` (atropisomer, axis not shown) [Compound 37, (R)-1-(4-(7-(3-amino-5-methyl-1H-indazol-4-yl)-6-chloro-2-(3-(dimethylamino)azetidin-1-yl)-8-fluoroquinazolin-4-yl)piperazin-1-yl)prop-2-en-1-one], the Binding % entry is given as “+++ (+++ indicates binding activity greater than 80%)”.

`C=CC(=O)N1CCN(c2nc(N3CC(N(C)C)C3)nc3c(F)c(-c4c(C)ccc5[nH]nc(N)c45)c(Cl)cc23)CC1` (atropisomer, axis not shown) [Compound 38, (S)-1-(4-(7-(3-amino-5-methyl-1H-indazol-4-yl)-6-chloro-2-(3-(dimethylamino)azetidin-1-yl)-8-fluoroquinazolin-4-yl)piperazin-1-yl)prop-2-en-1-one]: the Binding % entry is “+ (+ indicates binding activity greater than 0% and up to 50%)”.

For `C=CC(=O)N1C[C@H](C)N(c2nc(OCCN3CCCC3)nc3c(F)c(-c4c(C)ccc5[nH]nc(N)c45)c(Cl)cc23)C[C@H]1C` (atropisomer, axis not shown) [Compound 53, 1-((2R,5S)-4-((S)-7-(3-amino-5-methyl-1H-indazol-4-yl)-6-chloro-8-fluoro-2-(2-(pyrrolidin-1-yl)ethoxy)quinazolin-4-yl)-2,5-dimethylpiperazin-1-yl)prop-2-en-1-one], the Binding % entry is “+ (+ indicates binding activity greater than 0% and up to 50%)”.

`C=CC(=O)N1C[C@H](C)N(c2nc(OCCN3CCOCC3)nc3c(F)c(-c4c(C)ccc5[nH]nc(N)c45)c(Cl)cc23)C[C@H]1C` (atropisomer, axis not shown) [Compound 58, 1-((2R,5S)-4-((S)-7-(3-amino-5-methyl-1H-indazol-4-yl)-6-chloro-8-fluoro-2-(2-morpholinoethoxy)quina-zolin-4-yl)-2,5-dimethylpiperazin-1-yl)prop-2-en-1-one]: the Binding % result is “+ (+ indicates binding activity greater than 0% and up to 50%)”.

Take `C=CC(=O)N1C[C@H](C)N(c2nc(OCCN3CCOCC3)nc3c(F)c(-c4c(C)ccc5[nH]nc(N)c45)c(Cl)cc23)C[C@H]1C` (atropisomer, axis not shown) [Compound 59, 1-((2R,5S)-4-((R)-7-(3-amino-5-methyl-1H-indazol-4-yl)-6-chloro-8-fluoro-2-(2-morpholinoethoxy)quina-zolin-4-yl)-2,5-dimethylpiperazin-1-yl)prop-2-en-1-one]: the Binding % entry is on record as “+++ (+++ indicates binding activity greater than 80%)”.

As for `C=CC(=O)N1C[C@H](C)N(c2nc(OCCN3CCC(F)(F)C3)nc3c(F)c(-c4c(C)ccc5[nH]nc(N)c45)c(Cl)cc23)C[C@H]1C` (atropisomer, axis not shown) [Compound 66, 1-((2R,5S)-4-((S)-7-(3-amino-5-methyl-1H-indazol-4-yl)-6-chloro-2-(2-(3,3-difluoropyrrolidin-1-yl)ethoxy)-8-fluoroquinazolin-4-yl)-2,5-dimethylpiperazin-1-y)prop-2-en-1-one], the Binding % result was “+ (+ indicates binding activity greater than 0% and up to 50%)”.

On to `C=CC(=O)N1C[C@H](C)N(c2nc(OCCN3CCC(F)(F)C3)nc3c(F)c(-c4c(C)ccc5[nH]nc(N)c45)c(Cl)cc23)C[C@H]1C` (atropisomer, axis not shown) [Compound 67, 1-((2R,5S)-4-((R)-7-(3-amino-5-methyl-1H-indazol-4-yl)-6-chloro-2-(2-(3,3-difluoropyrrolidin-1-yl)ethoxy)-8-fluoroquinazolin-4-yl)-2,5-dimethylpiperazin-1-yl)prop-2-en-1-one], for which the Binding % result was “+++ (+++ indicates binding activity greater than 80%)”.

As for `C=CC(=O)N1C[C@H](C)N(c2nc(N3CC(N(C)C)C3)nc3c(F)c(-c4c(C)ccc5[nH]nc(C6CC6)c45)c(Cl)cc23)C[C@H]1C` (atropisomer, axis not shown) [Compound 75, 1-((2R,5S)-4-((S)-6-chloro-7-(3-cyclopropyl-5-methyl-1H-indazol-4-yl)-2-(3-(dimethylamino)azetidin-1-yl)-8-fluoroquinazolin-4-yl)-2,5-dimethylpiperazin-1-yl)prop-2-en-1-one], the Binding % result was “+ (+ indicates binding activity greater than 0% and up to 50%)”.

`C=CC(=O)N1C[C@H](C)N(c2nc(N3CC(N(C)C)C3)nc3c(F)c(-c4c(C)ccc5[nH]nc(C6CC6)c45)c(Cl)cc23)C[C@H]1C` (atropisomer, axis not shown) [Compound 76, 1-((2R,5S)-4-((R)-6-chloro-7-(3-cyclopropyl-5-methyl-1H-indazol-4-yl)-2-(3-(dimethylamino)azetidin-1-yl)-8-fluoroquinazolin-4-yl)-2,5-dimethylpiperazin-1-yl)prop-2-en-1-one]: the Binding % result is “+++ (+++ indicates binding activity greater than 80%)”.

With `C=CC(=O)N1C[C@H](C)N(c2nc(OCCN3CC(F)(F)C3)nc3c(F)c(-c4c(C)ccc5[nH]nc(N)c45)c(Cl)cc23)C[C@H]1C` (atropisomer, axis not shown) [Compound 83, 1-((2R,5S)-4-((S)-7-(3-amino-5-methyl-1H-indazol-4-yl)-6-chloro-2-(2-(3,3-difluoroazetidin-1-yl)ethoxy)-8-fluoroquinazolin-4-yl)-2,5-dimethylpiperazin-1-yl)prop-2-en-1-one], the Binding % entry is “+ (+ indicates binding activity greater than 0% and up to 50%)”.

As for `C=CC(=O)N1C[C@H](C)N(c2nc(OCCN3CC(F)(F)C3)nc3c(F)c(-c4c(C)ccc5[nH]nc(N)c45)c(Cl)cc23)C[C@H]1C` (atropisomer, axis not shown) [Compound 84, 1-((2R,5S)-4-((R)-7-(3-amino-5-methyl-1H-indazol-4-yl)-6-chloro-2-(2-(3,3-difluoroazetidin-1-yl)ethoxy)-8-fluoroquinazolin-4-yl)-2,5-dimethylpiperazin-1-yl)prop-2-en-1-one], the Binding % result is recorded as “+++ (+++ indicates binding activity greater than 80%)”.

Turning to `C=CC(=O)N1C[C@H](C)N(c2nc(N3CC(N(C)C)C3)nc3c(F)c(-c4c(C)ccc5cnn(C)c45)c(Cl)cc23)C[C@H]1C` (atropisomer, axis not shown) [Compound 87, 1-((2R,5S)-4-((R)-6-chloro-7-(1,6-dimethyl-1H-indazol-7-yl)-2-(3-(dimethylamino)azetidin-1-yl)-8-fluoroquinazolin-4-yl)-2,5-dimethylpiperazin-1-yl)prop-2-en-1-one], the Binding % result is on record as “+++ (+++ indicates binding activity greater than 80%)”.
